Where no end group is shown, it is not given here. [ ]: non-standard residue; d: D form.
B1: CD40L: CD40L (5 ug/mL) added to immature monocyte derived DC cultures (protein, UniProt P29965 113-261, looked up)
CD40 ligand, soluble form: MQKGDQNPQIAAHVISEASSKTTSVLQWAEKGYYTMSNNLVTLENGKQLTVKRQGLYYIYAQVTFCSNREASSQAPFIASLCLKSPGRFERILLRAANTHSSAKPCGQQSIHLGGVFELQPGASVFVNVTDPSQVSHGTGFTSFGLLKL

Assays:
isolated T cells (CD3+) = assay: IL-2 secretion from isolated T cells (CD3+); type: cell-based, human; details: anti-CD3 anti-CD28 Dynabeads, 0-1.25 μM, 72 hours
Protocol: In brief, isolated T cells (CD3+) were stimulated with anti-CD3 anti-CD28 Dynabeads™ and cultured together the Lck activating polypeptides RSKAKNPLY-RRRRRRRRR (SEQ ID NO: 24, “IK14800”), RVKVKVVVV-RRRRRRRRR (SEQ ID NO: 58, “IK15800”), and RVKVKVVVV-RRRRRRRRR ([…]) comprising only D amino acids (i.e. rvkvkvvvv-rrrrrrrrr; […], “IKD15800”), over a 5-concentration range plus vehicle control (0-1.25 μM) for 72 hours after which supernatants were collected and assessed for IL-2 by ELISA.

[1] = system: anti-CD3 stimulated PBMCs; assay: IL-12p70 secretion in anti-CD3 stimulated PBMCs; type: cell-based, human; details: 24 hours
Protocol: The ability of Lck activating polypeptides to alter IL-12 (IL-12p70) secretion was examined further. In brief, anti-CD3 stimulated PBMCs were cultured together with the Lck activating polypeptides RVKVKVVVV-RRRRRRRRR (SEQ ID NO: 58, “IK15800”), RSKAKNPLY-RRRRRRRRR (SEQ ID NO: 24, “IK14800”), and RVKVKVVVV-RRRRRRRRR (SEQ ID NO: 58) and RSKAKNPLY-RRRRRRRRR (SEQ ID NO: 24) comprising only D amino acids (SEQ ID NO: 111, “IKD15800”, and SEQ ID NO: 129, “IKD14800”, respectively), in the presence and absence of anti-CD40L blocking antibody for 24 hours. Supernatants were assessed for IL-12p70 levels by ELISA.
The ability of Lck activating polypeptides to alter IL-12 (IL-12p70) secretion was examined relative to no peptide. In brief, PBMCs were cultured together with anti-CD3 (1 ug/ml) and the Lck activating polypeptide RSKAKNPLY-RRRRRRRRR (SEQ ID NO: 24) or RVKVKVVVV-RRRRRRRRR (SEQ ID NO: 58) for 24 or 72 hours. Supernatants were assessed for IL-12p70 levels by ELISA.

CD3neg CD56+ NK cells = CD3neg CD56+ NK cells within stimulated PBMCs (Ki67, CD25, CD215, CD360); type: cell-based, human; details: data not shown
Protocol: The ability of Lck activating polypeptides to induce proliferation of isolated human CD3^neg CD56^+ NK cells within PBMCs was examined. In brief, anti-CD3 stimulated PBMCs were cultured together with the Lck activating polypeptide rvkvkvvvv-rrrrrrrrr (SEQ ID NO: 111, IKD15800) for 72 hours after which CD3^neg CD56^+ NK cells were assessed for Ki67 expression by flow cytometry. Ki67 is a proliferation marker used to determine the growth fraction of a given cell population, in this case CD3^neg CD56^+ NK cells.

CD4+ T cells = assay: pSTAT4 expression in stimulated T cell assay; type: cell-based, human; details: 0-1.25 μM, 72 hours; data not shown
Excerpt: The effect of Lck activating polypeptides on intracellular pSTAT4 expression in CD4+ and CD8+ T cells in a stimulated T cell assay was examined. In brief, isolated T cells (CD3+) were stimulated with anti-CD3 anti-CD28 Dynabeads™ and cultured together with the Lck activating polypeptides RSKAKNPLY-RRRRRRRRR (SEQ ID NO: 24), RVKVKVVVV-RRRRRRRRR (SEQ ID NO: 58) and RVKVKVVVV-RRRRRRRRR (SEQ ID NO: 58) comprising only D amino acids (SEQ ID NO: 111), over a 5-concentration range plus vehicle control (0-1.25 μM) for 72 hours after which […] assessed for p-STAT4 expression by flow cytometry.

Lck = biological target: T1, Lck (Homo sapiens, UniProt P06239); assay: In vitro Lck activation kinase study (Eurofins); type: biochemical; details: peptide 1 μM; relative to control
T1 construct: purchased Eurofins Pharma Discovery Services UK Limited
Protocol: The ability of polypeptides of the present invention to activate Lck was examined in vitro. Lck is member of the Src family of tyrosine kinases. […] All results in are percentage Lck activity relative to control (100%).
Test polypeptides were assessed at a concentration of 1.0 μM.
The ability of polypeptides of the present invention to activate Src family kinases was examined in vitro. Kinase activation studies utilising peptides were carried out as described in Example 1, and all kinase activity values are shown as percentage relative to control.
The ability of polypeptides comprising both lysine and arginine to activate Lck in vitro was examined. Lck activation studies utilising peptides were carried out as described in Example 1, and all kinase activity values are shown as percentage relative to control.

exhausted CD4+ T cells = assay: CD4+ T cell exhaustion assay, CD25 on restimulation; type: cell-based, murine; details: 72 hours; relative to IK14000 control peptide
Excerpt: A CD4+ T cell exhaustion assay using a murine model (Tg4 Ly5.1 (MBP-Tracker Mouse), B10PIxC57BL/6) was used whereby CD4+ T cell receptor transgenic T cells are stimulated with wild-type myelin basic protein peptide (WT-MBP) to produce fully responsive effector T cells or altered peptide ligand peptide MBP (APL-MBP) to produce exhausted T cells. These are rested in IL-2 and then a secondary stimulation with APC, a dose of APL-MBP peptide along with any treatments under investigation.
Spleens from the aforementioned mice were removed and processed to generate a single cell suspension of splenocytes. MBP-Tracker splenocytes were resuspended at 3×10^6/mL and stimulated with WT-MBP (control, non-exhausted cells) or APL-MBP (to generate exhausted cells). Cells were stimulated for 72 hr. Following stimulation, T cells were purified by Ficoll density gradient, and subsequently re-plated at 2×10^6/mL in 20 U/mL IL-2 for four days. […] Following 48-72b hours of culture the cells were assessed by flow cytometry for markers of IL-2Ra and proliferation (CD25 and Ki-67, respectively) and supernatant was collected for assessment of cytokine production (IFN-γ and TNF-α) by ELISA or multiplexed immunoassays. […]

[2] = system: isolated human CD4+ T cells; assay: IFN-γ secretion in stimulated CD4+ T cell assay; type: cell-based; details: anti-CD3 anti-CD28 Dynabeads, 24 hours
Protocol: (§1) The ability of Lck activating polypeptides to alter IFN-γ secretion by isolated human CD4+ T cells in a stimulated CD4+ T cell assay was also examined. In brief, Isolated CD4+ T cells were stimulated with anti-CD3 anti-CD28 Dynabeads™ and cultured together with the Lck activating polypeptides RRRRRRRRR (SEQ ID NO: 6, IK00900) and RSKAKNPLY-RRRRRRRRR (SEQ ID NO: 24, IK14800) for 24 hours after which supernatants were assessed for IFN-γ by ELISA.
as §1, with “polypeptides comprising D amino acids” for “polypeptides”, “polypeptide” for “polypeptides RRRRRRRRR (SEQ ID NO: 6, IK00900) and”, “IK14800), or the Lck activating polypeptide RSKAKNPLY-RRRRRRRRR (SEQ ID NO: 24) comprising only D amino acids (SEQ ID NO: 129, IKD14800),” for “IK14800)”

[3] = system: isolated human CD8+ T cells; assay: IFN-γ secretion in stimulated CD8+ T cell assay; type: cell-based; details: anti-CD3 anti-CD28 Dynabeads, 24 hours
Protocol: as §1, with “CD8+” for “CD4+”, “was” for “was also”
In brief, Isolated CD8+ T cells were stimulated with anti-CD3 anti-CD28 Dynabeads™ and cultured together with the Lck activating polypeptide RSKAKNPLY-RRRRRRRRR (SEQ ID NO: 24), comprising only D amino acids (SEQ ID NO: 129, IKD14800), for 24 hours after which supernatants were assessed for IFN-γ by ELISA.

isolated CD8+ T cells = assay: IL-18Ra expression on stimulated CD8+ T cells; type: cell-based, human; details: 24 hours; data not shown
Protocol: The effect of Lck activating polypeptides on IL-18Ra expression on CD4+ and CD8+ T cells in stimulated CD4+ and CD8+ T cell assays was examined. In brief, isolated CD8+ T cells were stimulated with anti-CD3 anti-CD28 Dynabeads™ and cultured together with the Lck activating polypeptides RSKAKNPLY-RRRRRRRRR (SEQ ID NO: 24), and RSKAKNPLY-RRRRRRRRR (SEQ ID NO: 24) comprising only D amino acids (SEQ ID NO: 129), for 24 hours after which cells were assessed for IL-18Ra expression by flow cytometry.

isolated CD4+ T cells = assay: IL-18Ra expression on stimulated CD4+ T cells; type: cell-based, human; details: 24 hours; data not shown
Protocol: Isolated CD4+ T cells were stimulated with anti-CD3 anti-CD28 Dynabeads™ and cultured together with the Lck activating polypeptides RSKAKNPLY-RRRRRRRRR (SEQ ID NO: 24), and RSKAKNPLY-RRRRRRRRR (SEQ ID NO: 24) comprising only D amino acids (SEQ ID NO: 129), for 24 hours after which cells were assessed for IL-18Ra expression by flow cytometry.

[4] = system: immature monocyte derived DCs (iMoDCs); assay: Dendritic cell phenotype (CD14 expression) in immature DC cultures; type: cell-based; details: CD40L 5 ug/mL and anti-CD3, 72 hours; data not shown
Protocol: The effect of CD40L on dendritic cell phenotype (CD14 expression) in isolated immature DC cell cultures was examined. In brief, immature monocyte derived DCs (iMoDCs) were derived from isolated CD14+ monocytes cultured for 7 days in MoDC differentiation media. iMoDCs were cultured for 72 hours in the presence of CD40L (5 ug/mL) and anti-CD3 (1 ug/mL). After 72 hours, cells were assessed for CD14 and CD11c expression by flow cytometry to determine DC cell phenotype.
In brief, immature monocyte derived DCs (iMoDCs) were derived from isolated CD14+ monocytes cultured for 7 days in Mo-DC differentiation media. iMoDCs were cultured for 72 hrs in the presence of test peptides over a 5-point concentration curve plus vehicle (0-1.25 μM) and anti-CD3 (1 μg/mL). After 72 hrs, cells were assessed for CD14 and CD11c expression by flow cytometry to determine DC cell phenotype. Data presented indicates the mean respective CD14 positive or negative cell populations (%) within CD11c positive population in response to peptide treatment, +/− SEM, n=4. Data were analysed by RM two-way ANOVA with Dunnett's post-test comparing each peptide concentration with vehicle, *p<0.05, **p<0.01, ***p<0.001.

T1 sequence (P06239 whole entry): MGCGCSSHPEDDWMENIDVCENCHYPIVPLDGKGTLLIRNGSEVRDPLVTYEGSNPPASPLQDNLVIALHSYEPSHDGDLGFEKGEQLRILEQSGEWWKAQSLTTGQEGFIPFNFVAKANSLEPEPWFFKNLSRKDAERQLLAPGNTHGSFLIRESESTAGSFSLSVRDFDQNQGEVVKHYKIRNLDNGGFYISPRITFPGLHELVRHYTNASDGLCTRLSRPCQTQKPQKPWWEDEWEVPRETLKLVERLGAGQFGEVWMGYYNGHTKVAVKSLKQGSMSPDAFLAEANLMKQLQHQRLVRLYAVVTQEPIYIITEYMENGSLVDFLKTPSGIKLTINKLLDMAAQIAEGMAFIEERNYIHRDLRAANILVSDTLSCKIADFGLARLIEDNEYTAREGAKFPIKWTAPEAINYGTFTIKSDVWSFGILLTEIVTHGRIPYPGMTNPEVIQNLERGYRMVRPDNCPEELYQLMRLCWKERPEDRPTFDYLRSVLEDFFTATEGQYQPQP

| Molecule | IL-2 secretion relative to control (isolated T cells (CD3+)) | IL-12 (IL-12p70) secretion relative to cultures with anti-CD40L blocking antibody [1] | proliferating population of CD3neg CD56+ NK cells (Ki67) (CD3neg CD56+ NK cells; 72 hours) | population of CD3neg CD56+ NK cells that were CD25 positive (CD3neg CD56+ NK cells) | population of CD3neg CD56+ NK cells that were CD215 positive (CD3neg CD56+ NK cells) | population of CD3neg CD56+ NK cells that were CD360 positive (CD3neg CD56+ NK cells) | p-STAT4 expression on CD4+ T cells (CD4+ T cells) | increase in Lck activity (Lck) | expression of CD25 in exhausted CD4+ T cells upon restimulation (exhausted CD4+ T cells) | IFN-γ secretion relative to no peptide control [2] | IFN-γ secretion relative to no peptide control [3] | IL-18Ra expression on CD8+ T cells (isolated CD8+ T cells) | IL-18Ra expression on CD4+ T cells (isolated CD4+ T cells) | proportion of CD14 negative CD11c+ dendritic cells [4] |
| --- | --- | --- | --- | --- | --- | --- | --- | --- | --- | --- | --- | --- | --- | --- |
| rvkvkvvvv-rrrrrrrrr ([dR][dV][dK][dV][dK][dV][dV][dV][dV][dR][dR][dR][dR][dR][dR][dR][dR][dR]) [IKD15800] | induce IL-2 secretion | induce IL-12 secretion | increased the proliferating population | increased the population | increased the population | increased the population | increase p-STAT4 expression |  |  |  |  |  |  |  |
| rskaknplyrrrrrrrrr ([dR][dS][dK][dA][dK][dN][dP][dL][dY][dR][dR][dR][dR][dR][dR][dR][dR][dR]) [IKD14800] |  | induce IL-12 secretion |  |  |  |  |  | 490% | increased | induces IFN-γ secretion | induces IFN-γ secretion | increase IL-18Ra expression | increase IL-18Ra expression |  |
| B1 |  |  |  |  |  |  |  |  |  |  |  |  |  | increased the proportion of CD14 negative CD11c+ dendritic cells |

Reference: patent US12134663B2, “Cationic peptides for activating Lck” (Interk Peptide Therapeutics Limited, priority 2018, dated 2024)
